Values quoted from earlier work as cited in US7282218B2, “pH sensitive polymer for inhibiting transformation in drugs” (Council of Scientific and Industrial Research, priority 2003, dated 2007).

Assays:
[1] = humans
[2] = amorphous vs crystalline

Structure (SMILES)	bioavailability [1]	solubility of amorphous form relative to the crystalline form [2] [times]
CO/N=C(\C(=O)N[C@@H]1C(=O)N2C(C(=O)OC(C)OC(C)=O)=C(COC(N)=O)CS[C@H]12)c1ccco1 (some centres unmarked) [Cefuroxime axetil]	32-50%	
CO[C@@H]1[C@@H](OC(N)=O)[C@@H](O)[C@H](Oc2ccc3c(O)c(NC(=O)c4ccc(O)c(CC=C(C)C)c4)c(=O)oc3c2C)OC1(C)C [novobiocin]		10
